Experimental data from patent US20210221812A1, “MATRINE a-KETOAMINE COMPOUNDS, PREPARATION METHOD THEREFOR AND USE THEREOF” (SHANGHAI XINGYE PHARMACEUTICAL TECHNOLOGY CO., LTD, priority 2018, published 2021).
Like-named read-outs stand apart in the source and are kept apart here.

How the values were obtained:
TNF-α = TNF-α activity inhibiting assay (LPS-stimulated peripheral blood, ELISA); assay type: cell-based, human; settings: compound 20 μM, LPS 10 ng/mL, 6 hours, diluted peripheral blood of healthy volunteers; for inhibition at 20 µM: Homo sapiens, read-out: TNF-α inhibition rate (%)
Method: Methods: Peripheral blood from healthy volunteers was collected with EDTA anticoagulant tubes. After being diluted 5-fold with 1640 medium (Gibco, USA), the blood was added to 96-well cell culture plates (Costar, USA) and then treated with 10 μL solution of the compound of general formula (I) of the present invention in DMSO (Sigma, USA), the final concentration of the compound was 20 μM with the final concentration of DMSO was 0.2%. After incubation for 60 minutes in an incubator at 37° C. under 5% CO2, 10 μL LPS (Sigma, USA) was added to the reaction system, and the final concentration was 10 ng/mL. After further culturing for 6 hours in the incubator at 37° C. under 5% CO2, the supernatant was collected. The content of TNF-α was determined by ELISA (BD Biosciences, USA). Absorbance was detected at OD450 nm with a microplate reader, with OD 650 nm as reference. The control, a solution containing 0.2% DMSO medium, was as 0% inhibition. Raw data and standard curves were recorded. The four-parameter drug inhibition curve was plotted by XL-fit software and the inhibition rate of each compound was calculated.

Lovo cells = experiment: MTT tumor cell growth inhibition, Lovo; assay type: cell-based; settings: 48 h, read-out: Tumors growth-inhibitory activity (IC50) Lovo
Method: (§1) Using MTT method to determine the growth inhibition activity of the matrine compounds on Lovo, MGC-803, Mia-paca2, HpeG-2, A549, k562, and Panc-1 cells in vitro. Logarithmic growth phase of Lovo, MGC-803, Mia-paca2, HpeG-2, A549, k562, Panc-1 cells were inoculated into 96-well plates (purchased from Institute of Biochemical Cells, Chinese Academy of Sciences, and cultured according to conventional tumor cell culture methods) at a density of 4×10^4/mL and 180 μL/well; after the cells adhered to the wall, 20 μL of drug solution was added to each well and matined the final drug concentrations were 0.1 μM, 1 μM, 10 μM, 50 μM, 100 μM respectively. After 48 h, 5 mg/mL MTT solution was added (20 μL/well) and maintained in a CO2 incubator for 3-4 h. After that, discarding the supernatant carefully, and DMSO was added (200 μL/well) when the residual liquid was air-dried, and shook for 0.5-1 h until the residual crystals was dissolved. The absorbance OD was measured at 492 nm by a microplate reader. GraphPad Prism 5 software was used to calculate the IC50 value.

MGC-803 cells = experiment: MTT tumor cell growth inhibition, MGC-803; assay type: cell-based; settings: 48 h, read-out: Tumors growth-inhibitory activity (IC50) MGC-803
Method: as §1

Mia-paca2 cells = experiment: MTT tumor cell growth inhibition, Mia-paca2; assay type: cell-based; settings: read-out: Tumors growth-inhibitory activity (IC50) Mia-paca2
Method: as §1

HpeG-2 cells = experiment: MTT tumor cell growth inhibition, HpeG-2; assay type: cell-based; settings: 48 h, read-out: Tumors growth-inhibitory activity (IC50) HpeG-2
Method: as §1

k562 cells = experiment: MTT tumor cell growth inhibition, k562; assay type: cell-based; settings: 48 h, read-out: Tumors growth-inhibitory activity (IC50) k562
Method: as §1

A549 cells = experiment: MTT tumor cell growth inhibition, A549; assay type: cell-based; settings: 48 h, read-out: Tumors growth-inhibitory activity (IC50) A549
Method: as §1

Panc-1 cells = experiment: MTT tumor cell growth inhibition, Panc-1; assay type: cell-based; settings: 48 h, read-out: Tumors growth-inhibitory activity (IC50) Panc-1
Method: as §1

CC(C)Nc1cccc2c1C(=O)N(C1CC[C@@H]3[C@H]4CCCN5CCC[C@@H](CN3C1=O)[C@@H]45)C2=O (some centres unmarked) [GJD 12]
inhibition at 20 µM (TNF-α): > 50%

Nc1ccc2c(c1)C(=O)N(C1CC[C@@H]3[C@H]4CCCN5CCC[C@@H](CN3C1=O)[C@@H]45)C2 (some centres unmarked) [GJD 41]
inhibition at 20 µM (TNF-α): > 50%

O=C1c2cccc(O)c2C(=O)N1C1CC[C@@H]2[C@H]3CCCN4CCC[C@@H](CN2C1=O)[C@@H]34 (some centres unmarked) [GJD 10]
TNF-α inhibition rate (%) (TNF-α): ≥50%

O=C1c2ccccc2CN1C1CC[C@@H]2[C@H]3CCCN4CCC[C@@H](CN2C1=O)[C@@H]34 (some centres unmarked) [GJD 30]
inhibition at 20 µM (TNF-α): < 50%

O=C1[C@@H](N2C(=O)c3ccccc3C2=O)CC[C@@H]2[C@H]3CCCN4CCC[C@@H](CN12)[C@@H]34 [GJD 25]
IC50 (Lovo cells; Homo sapiens): 50 to 100 µM | IC50 (MGC-803 cells; Homo sapiens): > 100 µM | IC50 (Mia-paca2 cells; Homo sapiens, MIA PaCa-2, 48 h): > 100 µM | IC50 (HpeG-2 cells): 50 to 100 µM | IC50 (k562 cells; Homo sapiens): 50 to 100 µM | IC50 (A549 cells; Homo sapiens): 50 to 100 µM | IC50 (Panc-1 cells; Homo sapiens): > 100 µM

COc1cc2c(cc1OC)C(=O)N(C1CC[C@@H]3[C@H]4CCCN5CCC[C@@H](CN3C1=O)[C@@H]45)C2=O (some centres unmarked) [GJD 19]
inhibition at 20 µM (TNF-α): < 50%

CC(=O)Nc1cccc2c1CN(C1CC[C@@H]3[C@H]4CCCN5CCC[C@@H](CN3C1=O)[C@@H]45)C2=O (some centres unmarked) [GJD 33]
inhibition at 20 µM (TNF-α): > 50%

Nc1ccc2c(c1)C(=O)N(C1CC[C@@H]3[C@H]4CCCN5CCC[C@@H](CN3C1=O)[C@@H]45)C2=O (some centres unmarked) [GJD 18]
inhibition at 20 µM (TNF-α): < 50%

Nc1ccc(S(=O)(=O)NC2=CC[C@@H]3[C@H]4CCCN5CCC[C@@H](CN3C2=O)[C@@H]45)cc1 [GJD 47]
IC50 (Lovo cells; Homo sapiens): 50 to 100 µM | IC50 (MGC-803 cells; Homo sapiens): > 100 µM | IC50 (Mia-paca2 cells; Homo sapiens, MIA PaCa-2, 48 h): > 100 µM | IC50 (HpeG-2 cells): 50 to 100 µM | IC50 (k562 cells; Homo sapiens): 50 to 100 µM | IC50 (A549 cells; Homo sapiens): 50 to 100 µM | IC50 (Panc-1 cells; Homo sapiens): > 100 µM

NC1CC[C@@H]2[C@H]3CCCN4CCC[C@@H](CN2C1=O)[C@@H]34 (some centres unmarked) [Compound M-3, 14-amino-matrine]
IC50 (Lovo cells; Homo sapiens): 50 to 100 µM | IC50 (MGC-803 cells; Homo sapiens): > 100 µM | IC50 (Mia-paca2 cells; Homo sapiens, MIA PaCa-2, 48 h): > 100 µM | IC50 (HpeG-2 cells): 50 to 100 µM | IC50 (k562 cells; Homo sapiens): 50 to 100 µM | IC50 (A549 cells; Homo sapiens): 50 to 100 µM | IC50 (Panc-1 cells; Homo sapiens): > 100 µM

COc1cccc2c1C(=O)N(C1CC[C@@H]3[C@H]4CCCN5CCC[C@@H](CN3C1=O)[C@@H]45)C2=O (some centres unmarked) [GJD 09]
inhibition at 20 µM (TNF-α): > 50%

Nc1cccc2c1CN(C1CC[C@@H]3[C@H]4CCCN5CCC[C@@H](CN3C1=O)[C@@H]45)C2=O (some centres unmarked) [GJD 35]
inhibition at 20 µM (TNF-α): > 50%

Cc1cccc2c1C(=O)N(C1=CC[C@@H]3[C@H]4CCCN5CCC[C@@H](CN3C1=O)[C@@H]45)C2=O [GJD 24]
IC50 (Lovo cells): < 50 µM | IC50 (MGC-803 cells): 50 to 100 µM | IC50 (Mia-paca2 cells; 48 h): 50 to 100 µM | IC50 (HpeG-2 cells): < 50 µM | IC50 (k562 cells): < 50 µM | IC50 (A549 cells): < 50 µM | IC50 (Panc-1 cells): 50 to 100 µM

CS(=O)(=O)Nc1cccc2c1C(=O)N(C1CC[C@@H]3[C@H]4CCCN5CCC[C@@H](CN3C1=O)[C@@H]45)C2=O (some centres unmarked) [GJD 14]
inhibition at 20 µM (TNF-α): > 50%

O=C1c2ccccc2C(=O)N1C1CC[C@@H]2[C@H]3CCCN4CCC[C@H](CN2C1=O)[C@@H]34 (some centres unmarked) [GJD 28]
inhibition at 20 µM (TNF-α): > 50%

O=C1c2ccccc2C(=O)N1C1=CC[C@@H]2[C@H]3CCCN4CCC[C@@H](CN2C1=O)[C@@H]34 [GJD 22]
inhibition at 20 µM (TNF-α): > 50%

O=C1CCC[C@@H]2[C@H]3CCC[N+]4([O-])CCC[C@@H](CN12)[C@@H]34 (some centres unmarked) [Oxymatrine, oxymatrine, reference compound]
inhibition at 20 µM (TNF-α): < 50%

Cc1cccc2c1CN(C1CC[C@@H]3[C@H]4CCCN5CCC[C@@H](CN3C1=O)[C@@H]45)C2=O (some centres unmarked) [GJD 38]
TNF-α inhibition rate (%) (TNF-α): >50%

O=C(Nc1cccc2c1CN(C1CC[C@@H]3[C@H]4CCCN5CCC[C@@H](CN3C1=O)[C@@H]45)C2=O)c1ccccc1 (some centres unmarked) [GJD 34]
IC50 (Lovo cells; Homo sapiens): 50 to 100 µM | IC50 (MGC-803 cells; Homo sapiens): 50 to 100 µM | IC50 (Mia-paca2 cells; Homo sapiens, MIA PaCa-2, 48 h): 50 to 100 µM | IC50 (HpeG-2 cells): < 50 µM | IC50 (k562 cells; Homo sapiens): < 50 µM | IC50 (A549 cells; Homo sapiens): 50 to 100 µM | IC50 (Panc-1 cells; Homo sapiens): 50 to 100 µM

O=C1c2cccc(Cl)c2C(=O)N1C1CC[C@@H]2[C@H]3CCCN4CCC[C@@H](CN2C1=O)[C@@H]34 (some centres unmarked) [GJD 04]
inhibition at 20 µM (TNF-α): > 50%

Cc1cccc2c1CN(C1CC[C@@H]3[C@H]4CCCN5CCC[C@H](CN3C1=O)[C@@H]45)C2=O (some centres unmarked) [GJD 44]
inhibition at 20 µM (TNF-α): > 50%

Nc1ccccc1C(=O)NC1CC[C@@H]2[C@H]3CCCN4CCC[C@@H](CN2C1=O)[C@@H]34 (some centres unmarked) [GJD 49]
inhibition at 20 µM (TNF-α): > 50%

O=C1c2cccc(F)c2C(=O)N1C1CC[C@@H]2[C@H]3CCCN4CCC[C@@H](CN2C1=O)[C@@H]34 (some centres unmarked) [GJD 03]
inhibition at 20 µM (TNF-α): > 50%

Cc1cccc2c1C(=O)N(C1CC[C@@H]3[C@H]4CCCN5CCC[C@H](CN3C1=O)[C@@H]45)C2=O (some centres unmarked) [GJD 29]
inhibition at 20 µM (TNF-α): > 50%

O=C1c2cccc([N+](=O)[O-])c2C(=O)N1C1CC[C@@H]2[C@H]3CCCN4CCC[C@@H](CN2C1=O)[C@@H]34 (some centres unmarked) [GJD 05]
inhibition at 20 µM (TNF-α): > 50%

O=C1c2cccc(F)c2C(=O)N1C1CC[C@@H]2[C@H]3CCC[N+]4([O-])CCC[C@@H](CN2C1=O)[C@@H]34 (some centres unmarked) [GJD 65]
TNF-α inhibition rate (%) (TNF-α): ≥50%

CCOc1cc(C(=O)NC2CC[C@@H]3[C@H]4CCCN5CCC[C@@H](CN3C2=O)[C@@H]45)ccc1OC (some centres unmarked) [GJD 54]
inhibition at 20 µM (TNF-α): > 50%

C#Cc1cccc2c1C(=O)N(C1CC[C@@H]3[C@H]4CCCN5CCC[C@@H](CN3C1=O)[C@@H]45)C2=O (some centres unmarked) [GJD 11]
inhibition at 20 µM (TNF-α): < 50%

COc1ccc2c(c1)C(=O)N(C1CC[C@@H]3[C@H]4CCCN5CCC[C@@H](CN3C1=O)[C@@H]45)C2=O (some centres unmarked) [GJD 16]
IC50 (Lovo cells; Homo sapiens): 50 to 100 µM | IC50 (MGC-803 cells; Homo sapiens): 50 to 100 µM | IC50 (Mia-paca2 cells; Homo sapiens, MIA PaCa-2, 48 h): 50 to 100 µM | IC50 (HpeG-2 cells): < 50 µM | IC50 (k562 cells; Homo sapiens): 50 to 100 µM | IC50 (A549 cells; Homo sapiens): > 100 µM | IC50 (Panc-1 cells; Homo sapiens): > 100 µM

O=C(NC1CC[C@@H]2[C@H]3CCCN4CCC[C@@H](CN2C1=O)[C@@H]34)c1ccccc1O (some centres unmarked) [GJD 50]
inhibition at 20 µM (TNF-α): > 50%

Nc1cccc2c1C(=O)N(C1CC[C@@H]3[C@H]4CCCN5CCC[C@H](CN3C1=O)[C@@H]45)C2=O (some centres unmarked) [GJD 27]
inhibition at 20 µM (TNF-α): > 50%

CC(=O)Nc1cccc2c1C(=O)N(C1CC[C@@H]3[C@H]4CCCN5CCC[C@@H](CN3C1=O)[C@@H]45)C2=O (some centres unmarked) [GJD 13]
inhibition at 20 µM (TNF-α): > 50%

O=C1CCC[C@@H]2[C@H]3CCCN4CCC[C@H](CN12)[C@@H]34 [Sophoridine, sophoridine, reference compound]
inhibition at 20 µM (TNF-α): < 50%

COc1ccc(C(=O)NC2CC[C@@H]3[C@H]4CCCN5CCC[C@@H](CN3C2=O)[C@@H]45)cc1OC1CCCC1 (some centres unmarked) [GJD 53]
inhibition at 20 µM (TNF-α): > 50%

Cc1cccc2c1C(=O)N(C1CC[C@@H]3[C@H]4CCCN5CCC[C@@H](CN3C1=O)[C@@H]45)C2=O (some centres unmarked) [GJD 08]
inhibition at 20 µM (TNF-α): > 50%
